Tests used:
Type in all cases: biochemical
[1] = target: Pim-1 (Homo sapiens (Human), UniProt P11309); assay: Pim-1 kinase assay; details: 1 mM ATP, biotin-labeled BAD peptide substrate; read-out: Pim1 IC50
Procedure: (§1) Pim-1 and Pim-3 kinase assays-20 μL reactions were run in white 384 well polystyrene plates dotted with 0.8 μL compound/DMSO in the assay buffer (50 mM Tris, pH 7.5, 0.01% Tween-20, 5 mM MgCl2, 0.01% BSA, 5 mM DTT), containing […] Biotin-labeled BAD peptide substrate (AnaSpec 62269), 1 mM ATP, and 2.5 pM (Pim-1, Invitrogen PV3503) or 1.25 pM (Pim-3, Millipore 14-738) enzyme for 1 h at 25° C. Reactions were stopped by addition of 10 μL STOP Buffer (150 mM Tris, pH=7.5, 150 mM NaCl, 75 mM EDTA, 0.01% Tween-20, 0.3% BSA) supplemented with Phospho-Bad (Ser112) Antibody (Cell Signaling 9291) diluted 666-fold, and Streptavidin donor beads (PerkinElmer 6760002) along with Protein-A acceptor beads (PerkinElmer 6760137) at 15 μg/mL each. Supplementation of the STOP buffer with beads and stopping the reactions were done under reduced light. Prior to the stopping reactions STOP buffer with beads was pre-incubated for 1 h in the dark at room temperature. After stopping the reactions, plates were incubated for 1 h in the dark at room temperature before reading on a PHERAstar FS plate reader (BMG Labtech) under reduced light.

[2] = target: Pim-2 (Homo sapiens (Human), UniProt Q9P1W9); assay: Pim-2 kinase assay; details: 1 mM ATP, fluorescein-labeled CREBtide peptide substrate; read-out: Pim2 IC50
Procedure: Pim-2 kinase assay-20 μL reactions were run in white 384 well polystyrene plates dotted with 0.8 μL compound/DMSO in the assay buffer (50 mM Tris, pH 7.5, 0.01% Tween-20, 5 mM MgCl2, 0.01% BSA, 5 mM DTT), containing 0.05 μm Fluorescein-labeled CREBtide peptide substrate (Invitrogen PV3508), 1 mM ATP, and 1 nM enzyme (Invitrogen PV3649) for 2 h at 25° C. Reactions were stopped by addition of 10 μL TR-FRET Dilution Buffer (Invitrogen PV3574) with 30 mM EDTA and 1.5 nM LanthaScreen Tb-CREB pSer133 antibody (Invitrogen PV3566). After 30 min. incubation at room temperature, plates were read on a PHERAstar FS plate reader (BMG Labtech).

[3] = target: Pim-3 (Homo sapiens (Human), UniProt Q86V86); assay: Pim-3 kinase assay; details: 1 mM ATP, biotin-labeled BAD peptide substrate; read-out: Pim3 IC50
Procedure: as §1

Sequence of Pim-1 (P11309 whole entry): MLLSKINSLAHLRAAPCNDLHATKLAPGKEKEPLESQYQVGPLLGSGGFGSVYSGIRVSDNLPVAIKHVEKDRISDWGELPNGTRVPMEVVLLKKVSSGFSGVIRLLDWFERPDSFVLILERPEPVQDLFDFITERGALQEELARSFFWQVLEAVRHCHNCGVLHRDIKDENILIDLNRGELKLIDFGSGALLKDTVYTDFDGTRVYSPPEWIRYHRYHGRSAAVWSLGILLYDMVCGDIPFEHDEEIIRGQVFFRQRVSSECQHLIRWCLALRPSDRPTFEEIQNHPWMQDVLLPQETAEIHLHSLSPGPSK
Sequence of Pim-2 (Q9P1W9 whole entry): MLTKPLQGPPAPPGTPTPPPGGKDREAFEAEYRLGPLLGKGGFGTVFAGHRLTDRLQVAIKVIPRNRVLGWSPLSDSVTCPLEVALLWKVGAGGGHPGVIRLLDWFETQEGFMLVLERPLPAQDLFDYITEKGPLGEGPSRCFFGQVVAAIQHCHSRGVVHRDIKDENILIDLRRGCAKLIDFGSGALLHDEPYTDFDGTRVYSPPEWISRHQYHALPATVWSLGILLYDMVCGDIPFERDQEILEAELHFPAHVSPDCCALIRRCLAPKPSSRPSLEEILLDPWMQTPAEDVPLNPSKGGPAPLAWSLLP

Row | SMILES | IC50 [1] | IC50 [2] | IC50 [3]
1 | Nc1oc2cc(Br)cnc2c1C(=O)Nc1cnccc1N1CCC[C@H](N)C1 [Example 54, 2-amino-N-{4-[(3S)-3-aminopiperidin-1-yl]pyridin-3-yl}-6-bromo-furo[3,2-b]pyridine-3-carboxamide] | ≤ 10 nM | 10 to 100 nM | ≤ 10 nM
2 | Cc1ccnc2c(C(=O)Nc3cnccc3N3CCC[C@H](N)C3)c(N)oc12 [Example 55, 2-amino-N-{4-[(3S)-3-aminopiperidin-1-yl]pyridin-3-yl}-7-methyl-furo[3,2-b]pyridine-3-carboxamide] | 10 to 100 nM | > 2000 nM | ≤ 10 nM
3 | Cn1ncc(NC(=O)c2c(N)oc3cc(C(F)(F)F)cnc23)c1N1CCCC(N)CC1 (stereo not drawn) [Example 56, 2-amino-N-[5-(4-aminoazepan-1-yl)-1-methyl-1H-pyrazol-4-yl]-6-trifluoromethyl-furo[3,2-b]pyridine-3-carboxamide] | ≤ 10 nM | 10 to 100 nM | ≤ 10 nM
4 | Cn1ncc(NC(=O)c2c(N)oc3cc(Cl)cnc23)c1N1CCCC(N)CC1 (stereo not drawn) [Example 57, 2-Amino-N-[5-(4-aminoazepan-1-yl)-1-methyl-1H-pyrazol-4-yl]-6-chlorofuro[3,2-b]pyridine-3-carboxamide] | ≤ 10 nM | 100 to 1000 nM | ≤ 10 nM
5 | Cn1ncc(NC(=O)c2c(N)oc3c(Cl)ccnc23)c1N1CCCC(N)CC1 (stereo not drawn) [Example 58, 2-amino-N-[5-(4-aminoazepan-1-yl)-1-methyl-1H-pyrazol-4-yl]-7-chlorofuro[3,2-b]pyridine-3-carboxamide] | ≤ 10 nM | 100 to 1000 nM | ≤ 10 nM
6 | CCCc1cnc2c(C(=O)Nc3cnn(C)c3N3CCCC(N)CC3)c(N)oc2c1 (stereo not drawn) [Example 59, 2-amino-N-[5-(4-aminoazepan-1-yl)-1-methyl-1H-pyrazol-4-yl]-6-propylfuro[3,2-b]pyridine-3-carboxamide] | ≤ 10 nM | 10 to 100 nM | ≤ 10 nM
7 | Nc1oc2cccnc2c1C(=O)Nc1cnccc1N1C[C@@H](N)C[C@@H](C(F)(F)F)C1 [Example 60, 2-amino-N-{4-[(3S,5R)-3-amino-5-(trifluoromethyl)piperidin-1-yl]pyridin-3-yl}-furo[3,2-b]pyridine-3-carboxamide] | ≤ 10 nM | 10 to 100 nM | ≤ 10 nM
8 | Nc1oc2cc(C(F)(F)F)cnc2c1C(=O)Nc1cnccc1N1C[C@@H](N)C[C@@H](C(F)(F)F)C1 [Example 61, 2-amino-N-{4-[(3S,5R)-3-amino-5-(trifluoromethyl)piperidin-1-yl]pyridin-3-yl}-6-trifluoromethyl-furo[3,2-b]pyridine-3-carboxamide] | ≤ 10 nM | 10 to 100 nM | ≤ 10 nM
9 | Nc1oc2cc(Cl)cnc2c1C(=O)Nc1cnccc1N1C[C@@H](N)C[C@@H](C(F)(F)F)C1 [Example 62, 2-amino-N-{4-[(3S,5R)-3-amino-5-(trifluoromethyl)piperidin-1-yl]pyridin-3-yl}-6-chlorofuro[3,2-b]pyridine-3-carboxamide] | ≤ 10 nM | 10 to 100 nM | ≤ 10 nM
10 | Nc1oc2cc(F)cnc2c1C(=O)Nc1cnccc1N1C[C@@H](N)C[C@@H](C(F)(F)F)C1 [Example 63, 2-amino-N-{4-[(3S,5R)-3-amino-5-(trifluoromethyl)piperidin-1-yl]pyridin-3-yl}-6-fluorofuro[3,2-b]pyridine-3-carboxamide] | ≤ 10 nM | 10 to 100 nM | ≤ 10 nM
11 | Cc1cncc(NC(=O)c2c(N)oc3cccnc23)c1N1CC[C@H](N)C1 [Example 64, 2-amino-N-{4-[(3S)-3-aminopyrrolidin-1-yl]-5-methylpyridin-3-yl}furo[3,2-b]pyridine-3-carboxamide] | ≤ 10 nM | 100 to 2000 nM | ≤ 10 nM
12 | C[C@@H]1C[C@H](N)CN(c2ccncc2NC(=O)c2c(N)oc3cccnc23)C1 [Example 65, 2-amino-N-{4-[(3S,5R)-3-amino-5-methyl-piperidin-1-yl]pyridin-3-yl}-furo[3,2-b]pyridine-3-carboxamide] | ≤ 10 nM | 10 to 100 nM | ≤ 10 nM
13 | C[C@H]1CN(c2ccncc2NC(=O)c2c(N)oc3cc(Cl)cnc23)C[C@@H](N)[C@@H]1O [Example 66, 2-amino-N-{4-[(3R,4R,5S)-3-amino-4-hydroxy-5-methylpiperidin-1-yl]pyridin-3-yl}-6-chlorofuro[3,2-b]pyridine-3-carboxamide] | ≤ 10 nM | 10 to 100 nM | ≤ 10 nM
14 | CCCc1cnc2c(C(=O)Nc3cnccc3N3C[C@@H](N)[C@H](O)[C@@H](C)C3)c(N)oc2c1 [Example 67, 2-Amino-N-{4-[(3R,4R,5S)-3-amino-4-hydroxy-5-methylpiperidin-1-yl]pyridin-3-yl}-6-propylfuro[3,2-b]pyridine-3-carboxamide] | ≤ 10 nM | ≤ 10 nM | ≤ 10 nM
15 | C[C@H]1CN(c2ccncc2NC(=O)c2c(N)oc3cc(C(F)(F)F)cnc23)C[C@@H](N)[C@@H]1O [Example 68, 2-Amino-N-{4-[(3R,4R,5S)-3-amino-4-hydroxy-5-methylpiperidin-1-yl]pyridin-3-yl}-6-(trifluoromethyl)furo[3,2-b]pyridine-3-carboxamide] | ≤ 10 nM | 10 to 100 nM | ≤ 10 nM
16 | CCCc1cnc2c(C(=O)Nc3cnccc3N3C[C@@H](N)C[C@@H](C(F)(F)F)C3)c(N)oc2c1 [Example 69, 2-Amino-N-{4-[(3S,5R)-3-amino-5-(trifluoromethyl)piperidin-1-yl]pyridin-3-yl}-6-propylfuro[3,2-b]pyridine-3-carboxamide] | ≤ 10 nM | ≤ 10 nM | ≤ 10 nM
17 | CCCc1cnc2c(C(=O)Nc3cnccc3N3C[C@H](C)C[C@H](N)C3)c(N)oc2c1 [Example 70, 2-Amino-N-{4-[(3S,5R)-3-amino-5-methyl-piperidin-1-yl]pyridin-3-yl}-6-propylfuro[3,2-b]pyridine-3-carboxamide] | ≤ 10 nM | 10 to 100 nM | ≤ 10 nM
18 | C[C@@H]1C[C@H](N)CN(c2ccncc2NC(=O)c2c(N)oc3cc(F)cnc23)C1 [Example 71, 2-Amino-N-{4-[(3S,5R)-3-amino-5-methyl-piperidin-1-yl]pyridin-3-yl}-6-fluorofuro[3,2-b]pyridine-3-carboxamide] | ≤ 10 nM | 10 to 100 nM | ≤ 10 nM
19 | C[C@@H]1C[C@H](N)CN(c2ccncc2NC(=O)c2c(N)oc3cc(Cl)cnc23)C1 [Example 72, 2-Amino-N-{4-[(3S,5R)-3-amino-5-methyl-piperidin-1-yl]pyridin-3-yl}-6-chlorofuro[3,2-b]pyridine-3-carboxamide] | ≤ 10 nM | 10 to 100 nM | ≤ 10 nM
20 | C[C@@H]1C[C@H](N)CN(c2ccncc2NC(=O)c2c(N)oc3cc(C(F)(F)F)cnc23)C1 [Example 73, 2-Amino-N-{4-[(3S,5R)-3-amino-5-methyl-piperidin-1-yl]pyridin-3-yl}-6-(trifluoromethyl)-furo[3,2-b]pyridine-3-carboxamide] | ≤ 10 nM | 10 to 100 nM | ≤ 10 nM
21 | C[C@H]1CN(c2ccncc2NC(=O)c2c(N)oc3cccnc23)C[C@@H](N)[C@@H]1O [Example 74, 2-Amino-N-{4-[(3R,4R,5S)-3-amino-4-hydroxy-5-methylpiperidin-1-yl]pyridin-3-yl}-furo[3,2-b]pyridine-3-carboxamide] | ≤ 10 nM | 10 to 100 nM | ≤ 10 nM
22 | CC(C)c1cnc2c(C(=O)Nc3cnccc3N3C[C@@H](N)[C@H](O)[C@@H](C)C3)c(N)oc2c1 [Example 75, 2-Amino-N-{4-[(3R,4R,5S)-3-amino-4-hydroxy-5-methylpiperidin-1-yl]pyridin-3-yl}-6-isopropylfuro[3,2-b]pyridine-3-carboxamide] | ≤ 10 nM | 10 to 100 nM | ≤ 10 nM
23 | Cc1cncc(NC(=O)c2c(N)oc3cccnc23)c1N1C[C@@H](N)[C@H](O)[C@@H](C)C1 [Example 76, 2-Amino-N-{5-methyl-4-[(3R,4R,5S)-3-amino-4-hydroxy-5-methylpiperidin-1-yl]pyridin-3-yl}-furo[3,2-b]pyridine-3-carboxamide] | ≤ 10 nM | 100 to 1000 nM | ≤ 10 nM

Source: patent US10000507B2, “Furo- and thieno-pyridine carboxamide compounds useful as pim kinase inhibitors” (Incyte Corporation, priority 2013, dated 2018)
